Where two headings read alike, the source gives them in different places.
Columns and labels:
CYP2C9 = CYP2C9 (Homo sapiens, UniProt P11712); assay: in vitro
Experimental: (§1) Samples were taken at predetermined time points.
(§2) Samples were then centrifuged at −4° C.
(§3) Positive control markers are as specified in Table 11.

CYP2C19 = CYP2C19 (Homo sapiens, UniProt P33261); assay: in vitro; details: for projected scaled intrinsic clearance, CYP isoform 2C19: scaled by estimated CYP abundance in human liver microsomes (0.009 nmol CYP/mg); for substrate for CYP2C19: CYP phenotyping
Chain of CYP2C19 (P33261 whole entry, canonical isoform): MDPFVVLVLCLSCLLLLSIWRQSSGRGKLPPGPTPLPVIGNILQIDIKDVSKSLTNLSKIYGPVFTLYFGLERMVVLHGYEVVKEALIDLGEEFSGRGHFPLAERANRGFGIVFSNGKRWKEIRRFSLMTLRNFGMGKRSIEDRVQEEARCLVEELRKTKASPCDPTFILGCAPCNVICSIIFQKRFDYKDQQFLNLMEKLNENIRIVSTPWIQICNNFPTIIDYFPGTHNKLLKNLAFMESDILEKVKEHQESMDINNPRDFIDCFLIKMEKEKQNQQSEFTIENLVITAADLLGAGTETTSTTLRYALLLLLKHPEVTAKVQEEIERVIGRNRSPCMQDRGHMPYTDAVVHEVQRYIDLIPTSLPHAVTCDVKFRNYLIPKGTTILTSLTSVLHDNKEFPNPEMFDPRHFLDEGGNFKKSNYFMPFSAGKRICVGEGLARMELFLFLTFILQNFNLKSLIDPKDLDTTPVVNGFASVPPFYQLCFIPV
Experimental: as §1, §2, §3

CYP3A4 = CYP3A4 (Homo sapiens, UniProt P08684); assay: in vitro
Chain of CYP3A4 (P08684 whole entry): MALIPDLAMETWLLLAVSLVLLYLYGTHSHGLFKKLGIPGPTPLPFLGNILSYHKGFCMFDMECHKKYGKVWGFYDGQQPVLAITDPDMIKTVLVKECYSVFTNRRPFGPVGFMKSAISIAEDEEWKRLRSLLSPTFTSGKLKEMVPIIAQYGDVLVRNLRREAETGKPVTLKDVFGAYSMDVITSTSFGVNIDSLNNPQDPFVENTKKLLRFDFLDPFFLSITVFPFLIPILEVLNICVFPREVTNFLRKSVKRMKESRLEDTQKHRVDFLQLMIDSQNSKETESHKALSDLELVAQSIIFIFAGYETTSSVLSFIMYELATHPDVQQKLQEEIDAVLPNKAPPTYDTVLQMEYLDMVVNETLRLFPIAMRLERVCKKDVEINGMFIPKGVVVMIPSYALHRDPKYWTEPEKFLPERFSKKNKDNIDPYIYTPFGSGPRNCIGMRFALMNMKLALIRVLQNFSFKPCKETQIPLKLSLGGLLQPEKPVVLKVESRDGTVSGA
Experimental: as §1, §2, §3

CYP1A2 = target: T1, CYP1A2 (Homo sapiens, UniProt P05177); assay: in vitro
T1 sequence (P05177 1-516): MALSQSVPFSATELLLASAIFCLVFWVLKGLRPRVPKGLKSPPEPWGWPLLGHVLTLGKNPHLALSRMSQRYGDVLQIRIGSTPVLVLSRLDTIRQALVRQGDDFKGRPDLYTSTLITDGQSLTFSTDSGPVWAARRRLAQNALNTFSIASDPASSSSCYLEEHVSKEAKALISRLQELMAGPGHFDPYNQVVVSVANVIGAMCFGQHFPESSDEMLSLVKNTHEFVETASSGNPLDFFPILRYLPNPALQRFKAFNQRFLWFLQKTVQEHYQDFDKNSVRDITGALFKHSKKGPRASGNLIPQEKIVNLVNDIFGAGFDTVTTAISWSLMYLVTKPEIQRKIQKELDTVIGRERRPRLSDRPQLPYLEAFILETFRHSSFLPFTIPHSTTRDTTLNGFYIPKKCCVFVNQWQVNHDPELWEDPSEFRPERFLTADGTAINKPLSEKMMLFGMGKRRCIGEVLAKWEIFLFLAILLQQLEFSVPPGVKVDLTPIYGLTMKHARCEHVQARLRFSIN
Experimental: as §1, §2, §3

CYP2D6 [1] = target: T2, CYP2D6 (Homo sapiens, UniProt P10635); assay: in vitro; details: recombinant enzyme, pH 7.4
T2 sequence (P10635 whole entry, canonical isoform): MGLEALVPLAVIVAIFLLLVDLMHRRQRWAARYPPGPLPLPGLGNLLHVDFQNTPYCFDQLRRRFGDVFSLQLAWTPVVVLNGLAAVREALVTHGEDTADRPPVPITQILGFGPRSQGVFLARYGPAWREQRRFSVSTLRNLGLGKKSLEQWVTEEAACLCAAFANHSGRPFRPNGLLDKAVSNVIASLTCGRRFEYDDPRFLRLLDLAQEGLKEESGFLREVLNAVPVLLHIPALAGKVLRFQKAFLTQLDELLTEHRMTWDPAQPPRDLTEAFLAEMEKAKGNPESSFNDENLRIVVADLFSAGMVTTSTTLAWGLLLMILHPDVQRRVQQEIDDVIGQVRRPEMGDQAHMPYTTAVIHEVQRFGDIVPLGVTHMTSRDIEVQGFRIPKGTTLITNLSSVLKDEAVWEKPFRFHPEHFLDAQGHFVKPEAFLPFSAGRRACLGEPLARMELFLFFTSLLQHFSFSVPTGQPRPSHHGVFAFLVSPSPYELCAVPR
Experimental: (§4) The CYPs used in this study are heterologously expressed in E. coli and purchased as individualised forms (CYP bactosomes) from CYPEX. Bactosomes contain recombinant CYP isoenzymes combined with CYP reductase leading to a higher specific activity than liver microsomes.
(§5) Phosphate buffer is prepared at 0.1 M, pH 7.4 by combining 0.1 M Na2HPO4 and 0.1 M KH2PO4 solutions.
(§6) Nicotinamide adenine dinucleotide 2′-phosphate reduced tetrasodium salt hydrate (NADPH) is prepared at 10 m<in 0.1 M phosphate buffer (pH 7.4).
(§7) The individual CYP bactosomes are thawed at room temperature undiluted to 200 pmol/mL and 0.1 M phosphate buffer.
(§8) Standard final incubation conditions are 1-3 μM compound in a buffer containing 100 pmol/mL CYP bactosome, 1% (v/v) DMSO.
(§9) The elimination rate constant (k) is calculated using the slope of a ln (MS peak area or response—if internal standard is used) vs. time plot of the test compounds and markers.
(§10) Intrinsic clearance in μL/min/nmol CYP is calculated using the following equation: Clint=−1000 k/CYP concentration
(§11) Projected CYP isoform intrinsic clearance accounting for estimated CYP abundance in human liver microsomes (μL/min/mg microsomal protein)* is calculated using the following equation: Projected set isoform intrinsic clearance=Estimated CYP abundance*Clint * Estimated CYP abundance is taken as an average from three literature references 1, 2 3 and the abundances used are as follows (nmol CYP/mg Human Liver Microsomal Protein):

CYP2D6 [2] = target: T2, CYP2D6; details: for intrinsic clearance, CYP isoform 2D6: human, recombinant enzyme, pH 7.4
Experimental: as §4, §5, §6, §7, §8, §9, §10, §11

CYP3A5 = CYP3A5 (Homo sapiens, UniProt P20815); assay: in vitro; details: E. coli CYPEX membranes, 100 pmol/mL CYP
Chain of CYP3A5 (P20815 whole entry): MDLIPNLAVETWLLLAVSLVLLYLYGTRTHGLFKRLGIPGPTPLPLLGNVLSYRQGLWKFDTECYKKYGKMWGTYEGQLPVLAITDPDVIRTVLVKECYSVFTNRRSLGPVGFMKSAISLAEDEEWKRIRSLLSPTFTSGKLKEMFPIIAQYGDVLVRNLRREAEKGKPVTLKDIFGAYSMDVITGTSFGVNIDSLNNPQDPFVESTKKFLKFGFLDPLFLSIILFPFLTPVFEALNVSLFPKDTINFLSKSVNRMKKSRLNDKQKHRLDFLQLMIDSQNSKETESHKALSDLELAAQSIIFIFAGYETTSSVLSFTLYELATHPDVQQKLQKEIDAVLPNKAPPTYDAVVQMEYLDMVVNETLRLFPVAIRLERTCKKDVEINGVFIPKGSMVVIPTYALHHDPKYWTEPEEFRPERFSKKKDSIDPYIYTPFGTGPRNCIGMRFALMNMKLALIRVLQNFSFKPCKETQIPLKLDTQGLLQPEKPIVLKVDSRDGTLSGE
Experimental: as §1, §2, §3

CYP2B6 = target: T3, CYP2B6 (Homo sapiens, UniProt P20813); assay: in vitro; details: E. coli CYPEX membranes, 100 pmol/mL CYP
T3 sequence (P20813 1-491): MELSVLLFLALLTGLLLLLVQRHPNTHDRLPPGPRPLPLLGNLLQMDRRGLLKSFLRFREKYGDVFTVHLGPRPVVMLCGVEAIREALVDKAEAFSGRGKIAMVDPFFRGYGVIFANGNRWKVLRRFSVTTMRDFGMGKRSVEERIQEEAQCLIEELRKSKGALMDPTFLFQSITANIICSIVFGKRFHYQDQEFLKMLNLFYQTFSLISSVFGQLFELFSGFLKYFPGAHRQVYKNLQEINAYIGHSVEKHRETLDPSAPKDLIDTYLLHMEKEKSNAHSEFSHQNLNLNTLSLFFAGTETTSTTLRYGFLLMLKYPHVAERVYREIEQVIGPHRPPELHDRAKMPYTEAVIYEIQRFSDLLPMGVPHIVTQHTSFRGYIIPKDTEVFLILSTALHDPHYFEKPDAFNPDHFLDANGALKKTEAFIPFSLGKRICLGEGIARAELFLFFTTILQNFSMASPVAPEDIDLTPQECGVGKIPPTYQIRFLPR
Experimental: as §1, §2, §3

CYP2C8 = target: T4, CYP2C8 (Homo sapiens, UniProt P10632); assay: in vitro; details: E. coli CYPEX membranes, 100 pmol/mL CYP
T4 sequence (P10632 1-490): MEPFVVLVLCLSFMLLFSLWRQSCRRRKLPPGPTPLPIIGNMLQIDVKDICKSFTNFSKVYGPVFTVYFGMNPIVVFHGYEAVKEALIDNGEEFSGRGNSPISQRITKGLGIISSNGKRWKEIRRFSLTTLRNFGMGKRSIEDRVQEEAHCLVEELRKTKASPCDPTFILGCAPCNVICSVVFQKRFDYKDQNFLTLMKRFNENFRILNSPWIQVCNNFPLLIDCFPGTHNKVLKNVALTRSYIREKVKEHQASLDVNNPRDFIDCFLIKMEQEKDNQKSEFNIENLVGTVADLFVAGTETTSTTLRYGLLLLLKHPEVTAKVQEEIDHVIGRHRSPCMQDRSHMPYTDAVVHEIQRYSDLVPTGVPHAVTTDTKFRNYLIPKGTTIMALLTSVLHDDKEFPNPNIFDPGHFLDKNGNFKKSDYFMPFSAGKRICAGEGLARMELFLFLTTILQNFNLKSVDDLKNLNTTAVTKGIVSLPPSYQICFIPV
Experimental: as §1, §2, §3

CYP2D6 [3] = target: T2, CYP2D6; assay: CYP phenotyping, CYP bactosomes; details: for half-life, CYP isoform 2D6 / intrinsic clearance, CYP isoform 2D6: E. coli CYPEX membranes, 100 pmol/mL CYP; for projected scaled intrinsic clearance, CYP isoform 2D6: scaled by estimated CYP abundance in human liver microsomes (0.012 nmol CYP/mg); for substrate for CYP2D6: CYP phenotyping
Experimental: as §4, §5, §6, §7, §8, §9, §10, §11

[4] = Human liver mitochondrial fraction intrinsic clearance of SPL026, SPL028i, SPL028iii, SPL028viii; assay type: in vitro ADME; details: 0.5 mg/mL human liver mitochondrial fraction (Table 10)
Excerpt: Human Liver Mitochondrial (HLMt) fractions contain high quantities of MAO enzymes and therefore, provide a useful tool to measure the clearance of MAO substrates.

[5] = system: mouse (male CD-1) hepatocytes; assay: In vitro mouse hepatocytic intrinsic clearance; details: mouse CD-1 hepatocytes 0.367 million cells/mL, 5 μM (Table 8)
[6] = system: human (mixed gender) hepatocytes; assay: In vitro intrinsic clearance in human hepatocytes with and without MAO-A/B inhibitor combination (first experiment); details: for % change in half-life, MAO inhibitors vs no inhibitors / % change in intrinsic clearance, MAO inhibitors vs no inhibitors: human hepatocytes (Table 5); for Intrinsic clearance, without inhibitors: without MAO-A/B inhibitor combination (Table 5)
Experimental: Standard final incubation conditions are 1 μM compound in buffer containing nominally ˜0.5 million viable cells/mL, ˜0.9% (v/v) acetonitrile (MeCN) and ˜0.1% (v/v) DMSO (specific assay concentrations outlined above, section 2).
Samples are then centrifuged at 4° C.

[7] = human, recombinant enzyme, pH 7.4
[8] = E. coli CYPEX membranes, 100 pmol/mL CYP
[9] = human hepatocytes, with 100 nM clorgyline + 100 nM deprenyl/selegiline (Table 3)
[10] = human hepatocytes, with MAO-A/B inhibitor combination (Table 5)

Chain of CYP2C9 (P11712 whole entry): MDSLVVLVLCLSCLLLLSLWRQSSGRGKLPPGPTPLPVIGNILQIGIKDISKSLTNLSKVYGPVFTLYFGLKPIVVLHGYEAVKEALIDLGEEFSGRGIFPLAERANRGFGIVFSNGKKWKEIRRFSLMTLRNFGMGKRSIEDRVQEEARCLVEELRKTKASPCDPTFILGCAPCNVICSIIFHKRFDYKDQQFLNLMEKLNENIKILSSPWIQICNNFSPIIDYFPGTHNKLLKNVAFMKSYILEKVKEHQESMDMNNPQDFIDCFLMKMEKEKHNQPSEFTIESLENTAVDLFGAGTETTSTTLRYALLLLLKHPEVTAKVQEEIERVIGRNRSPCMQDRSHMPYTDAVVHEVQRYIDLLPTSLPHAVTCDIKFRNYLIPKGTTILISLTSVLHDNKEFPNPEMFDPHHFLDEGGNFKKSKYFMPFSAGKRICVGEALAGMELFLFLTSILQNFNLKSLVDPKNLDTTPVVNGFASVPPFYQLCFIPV

Row | Structure (SMILES) | half-life (CYP2D6 [1]) [min] | intrinsic clearance, CYP isoform 2D6 (CYP2D6 [2]) [μL/min/nmol CYP] | half-life, CYP isoform 2C9 (CYP2C9; [8]) [h] | intrinsic clearance, CYP isoform 2C9 (CYP2C9; [8]) [μL/min/nmol CYP] | half-life, CYP isoform 2C19 (CYP2C19; [8]) [h] | intrinsic clearance, CYP isoform 2C19 (CYP2C19; [8]) [μL/min/nmol CYP] | projected scaled intrinsic clearance, CYP isoform 2C19 (CYP2C19) | half-life, CYP isoform 3A4 (CYP3A4; [8]) [h] | intrinsic clearance, CYP isoform 3A4 (CYP3A4; [8]) [μL/min/nmol CYP] | half-life, CYP isoform 3A5 (CYP3A5) [h] | intrinsic clearance, CYP isoform 3A5 (CYP3A5) [μL/min/nmol CYP] | half-life, CYP isoform 2B6 (CYP2B6) [h] | half-life, CYP isoform 2C8 (CYP2C8) [h] | intrinsic clearance, CYP isoform 2C8 (CYP2C8) [μL/min/nmol CYP] | half-life, CYP isoform 1A2 (CYP1A2; [8]) [h] | half-life, CYP isoform 2D6 (CYP2D6 [3]) [h] | intrinsic clearance, CYP isoform 2D6 (CYP2D6 [3]) [μL/min/nmol CYP] | projected scaled intrinsic clearance, CYP isoform 2D6 (CYP2D6 [3]) | w Half-life [5] [h] | w Intrinsic clearance [5] [μL/min/million cells] | also measured
1 | COc1ccccc1OCCNCC(O)COc1cccc2[nH]c3ccccc3c12 (stereo not drawn) [Carvedilol, reference compound] | 2 | 4483 | – | – | – | – | – | – | – | – | – | – | – | – | – | – | – | – | – | – | half-life (CYP2C9; [7]): 2.23 h; intrinsic clearance, CYP isoform 2C9 (CYP2C9; [7]): 52 μL/min/nmol CYP; half-life (CYP2C19; [7]): 0.217 h; intrinsic clearance, CYP isoform 2C19 (CYP2C19; [7]): 526 μL/min/nmol CYP; half-life (CYP3A4; [7]): 0.817 h; intrinsic clearance, CYP isoform 3A4 (CYP3A4; [7]): 142 μL/min/nmol CYP; half-life (CYP1A2; [7]): 0.5 h; intrinsic clearance, CYP isoform 1A2 (CYP1A2; [7]): 231 μL/min/nmol CYP
2 | CN(C)CCc1c[nH]c2ccccc12 [DMT in SPL028i] | – | – | >4 | <29 | 2.93 | 40 | 0.4 μl/min/mg microsomal protein | >4 | <29 | >4 | <29 | >4 | >4 | <29 | >4 | 0.167 | 687 | 8.1 μl/min/mg microsomal protein | – | – | –
3 | CN(C)CCc1c[nH]c2ccccc12 [DMT in SPL028ii] | – | – | >4 | <29 | 2.7 | 43 | 0.4 μl/min/mg microsomal protein | >4 | <29 | >4 | <29 | >4 | >4 | <29 | >4 | 0.15 | 803 | 9.5 μl/min/mg microsomal protein | – | – | –
4 | COc1ccc2c(c1)[C@]13CCCC[C@@H]1[C@H](C2)N(C)CC3 [Dextromethorphan] | 3 | 2686 | – | – | – | – | – | – | – | – | – | – | – | – | – | – | – | – | – | – | –
5 | [2H]C([2H])(Cc1c[nH]c2ccccc12)N(C)C [SPL028i, α,α,-bis-deuterium-N,N-dimethyltryptamine] | – | – | >4 | <29 | 3 | 39 | 0.3 μl/min/mg microsomal protein | >4 | <29 | >4 | <29 | >4 | >4 | <29 | >4 | 0.15 | 793 | – | 0.323 | 97.4 | Intrinsic Clearance [4]: 44.6 μL/min/mg protein; substrate for CYP2C19 (CYP2C19): substrates; intrinsic clearance, CYP isoform 2B6 (CYP2B6): <29 μL/min/nmol CYP; intrinsic clearance, CYP isoform 1A2 (CYP1A2; [8]): <29 μL/min/nmol CYP; projected scaled intrinsic clearance, CYP isoform 2D6 (CYP2D6 [2]): 9.4 μl/min/mg microsomal protein; % change in half-life, MAO inhibitors vs no inhibitors [6]: −5.33%; % change in intrinsic clearance, MAO inhibitors vs no inhibitors [6]: 4.67%; Intrinsic clearance, with inhibitors [6, 9]: 7.50 μL/min/million cells; Half-life, with inhibitors [6, 10]: 2.8292 h; Intrinsic clearance, with inhibitors [6, 10]: 7.5 μL/min/million cells; Half-life, with inhibitors ([6]; human hepatocytes, with MAO-A/B inhibitors (Table 4; unit given only in Table 5)): 2.8292 h; quicker intrinsic clearance in the presence of MAO inhibitors ([6]; human hepatocytes, with vs without MAO inhibitors): ~5%; Intrinsic clearance, without inhibitors ([6]; human hepatocytes): 7.15 μL/min/million cells; substrate for CYP2D6 (CYP2D6 [3]): substrates
6 | [2H]C([2H])(Cc1c[nH]c2ccccc12)N(C)C [SPL028ii, α,α,-bis-deuterium-N,N-dimethyltryptamine] | – | – | >4 | <29 | 2.93 | 39 | 0.4 μl/min/mg microsomal protein | >4 | <29 | >4 | <29 | >4 | >4 | <29 | >4 | 0.15 | 801 | – | 0.307 | 102.7 | substrate for CYP2C19 (CYP2C19): substrates; intrinsic clearance, CYP isoform 2B6 (CYP2B6): <29 μL/min/nmol CYP; intrinsic clearance, CYP isoform 1A2 (CYP1A2; [8]): <29 μL/min/nmol CYP; projected scaled intrinsic clearance, CYP isoform 2D6 (CYP2D6 [2]): 9.5 μl/min/mg microsomal protein; % change in half-life, MAO inhibitors vs no inhibitors [6]: 14.69%; % change in intrinsic clearance, MAO inhibitors vs no inhibitors [6]: −19.13%; Intrinsic clearance, with inhibitors [6, 9]: 8.78 μL/min/million cells; Intrinsic clearance, with inhibitors [6, 10]: 8.78 μL/min/million cells; Intrinsic clearance, without inhibitors ([6]; human hepatocytes): 10.46 μL/min/million cells; substrate for CYP2D6 (CYP2D6 [3]): substrates

— patent US11773062B2, “Deuterated compounds” (priority 2021, dated 2023)
